Results reported in patent US7476673B2, “Disubstituted chalcone oximes as selective agonists of RARγ retinoid receptors” (Allergan, Inc., priority 2003, dated 2009).

How the values were obtained:
RARα [1] = target: T1, RARα (Homo sapiens, UniProt P10276); assay: ligand binding assay, RARα; conditions: results expressed in Ki numbers, read-out: RAR Binding α
T1 sequence (P10276 1-462): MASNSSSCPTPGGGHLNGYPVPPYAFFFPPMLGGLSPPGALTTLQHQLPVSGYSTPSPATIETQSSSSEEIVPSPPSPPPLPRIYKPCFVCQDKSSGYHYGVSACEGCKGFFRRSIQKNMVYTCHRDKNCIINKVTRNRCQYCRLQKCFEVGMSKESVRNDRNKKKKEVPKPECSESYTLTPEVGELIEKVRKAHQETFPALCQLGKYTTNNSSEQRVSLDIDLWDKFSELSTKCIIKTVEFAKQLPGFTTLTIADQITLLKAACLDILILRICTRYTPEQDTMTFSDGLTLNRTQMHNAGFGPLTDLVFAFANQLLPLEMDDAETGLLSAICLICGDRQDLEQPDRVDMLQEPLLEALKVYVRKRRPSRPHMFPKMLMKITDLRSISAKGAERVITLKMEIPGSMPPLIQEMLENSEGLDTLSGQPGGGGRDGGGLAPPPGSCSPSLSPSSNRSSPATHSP
Description: (§1) A holoreceptor transactivation assay and a ligand binding assay which measure the antagonist/agonist like activity of the compounds of the invention, or their ability to bind to the several retinoid receptor subtypes, respectively, are described in published PCT Application No. WO WO93/11755 (particularly on pages 30-33 and 37-41) published on Jun. 24, 1993, the specification of which is also incorporated herein by reference. A detailed experimental procedure for holoreceptor transactivations has been described by Heyman et al. Cell 68, 397-406, (1992); Allegretto et al. J. Biol. Chem. 268, 26625-26633, and Mangelsdorf et al. The Retinoids: Biology, Chemistry and Medicine, pp 319-349, Raven Press Ltd., New York, which are expressly incorporated herein by reference. The results obtained in this assay are expressed in EC50 numbers, as they are also in the chimeric receptor transactivation assay. The results of the ligand binding assay are expressed in Ki numbers. (See Cheng et al. Biochemical Pharmacology Vol. 22 pp 3099-3108, expressly incorporated herein by reference.)
(§2) Table 1 discloses the activity of certain exemplary compounds of the invention in the above-described chimeric RAR receptor transactivation and binding assays.

RARβ [2] = target: T2, RARβ (Homo sapiens, UniProt P10826); assay: ligand binding assay, RARβ; conditions: results expressed in Ki numbers, read-out: RAR Binding β
T2 sequence (P10826 1-455): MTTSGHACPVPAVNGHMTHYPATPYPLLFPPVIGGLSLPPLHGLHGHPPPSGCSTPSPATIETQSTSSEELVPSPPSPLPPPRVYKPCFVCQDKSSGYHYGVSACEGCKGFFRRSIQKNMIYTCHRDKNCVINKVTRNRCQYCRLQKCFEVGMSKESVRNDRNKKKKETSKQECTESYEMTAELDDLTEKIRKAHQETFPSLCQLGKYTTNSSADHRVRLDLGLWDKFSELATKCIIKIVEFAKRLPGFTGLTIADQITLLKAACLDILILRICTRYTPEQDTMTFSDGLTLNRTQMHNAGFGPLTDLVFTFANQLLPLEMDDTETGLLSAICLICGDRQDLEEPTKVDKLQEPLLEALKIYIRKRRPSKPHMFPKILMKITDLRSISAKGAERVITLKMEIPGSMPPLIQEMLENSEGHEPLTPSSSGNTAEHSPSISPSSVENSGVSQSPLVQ
Description: as §1, §2

RARγ [3] = target: T3, RARγ (Homo sapiens, UniProt P13631); assay: ligand binding assay, RARγ; conditions: results expressed in Ki numbers, read-out: RAR Binding γ
T3 sequence (P13631 1-454): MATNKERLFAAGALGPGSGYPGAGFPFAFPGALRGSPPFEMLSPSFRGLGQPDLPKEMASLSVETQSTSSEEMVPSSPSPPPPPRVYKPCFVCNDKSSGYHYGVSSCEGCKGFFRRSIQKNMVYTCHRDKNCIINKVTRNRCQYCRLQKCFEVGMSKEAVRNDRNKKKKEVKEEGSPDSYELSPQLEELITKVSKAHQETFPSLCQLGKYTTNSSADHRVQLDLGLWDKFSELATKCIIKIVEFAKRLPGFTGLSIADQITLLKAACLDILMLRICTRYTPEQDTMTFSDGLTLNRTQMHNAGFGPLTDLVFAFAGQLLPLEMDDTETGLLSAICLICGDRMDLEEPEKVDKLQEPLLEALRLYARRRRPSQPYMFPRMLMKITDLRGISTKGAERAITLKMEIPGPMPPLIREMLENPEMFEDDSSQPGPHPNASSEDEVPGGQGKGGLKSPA
Description: as §1, §2

RARα [4] = target: T4, RARα (Homo sapiens, UniProt P10276); assay: chimeric receptor transactivation assay, RARα; type: cell-based; conditions: for EC50: chimeric receptor transactivation, read-out: RAR EC50 α; for % Efficiency α: percentage of maximum compared to standard TTNPB
T4 sequence (P10276 183-417 limits assumed): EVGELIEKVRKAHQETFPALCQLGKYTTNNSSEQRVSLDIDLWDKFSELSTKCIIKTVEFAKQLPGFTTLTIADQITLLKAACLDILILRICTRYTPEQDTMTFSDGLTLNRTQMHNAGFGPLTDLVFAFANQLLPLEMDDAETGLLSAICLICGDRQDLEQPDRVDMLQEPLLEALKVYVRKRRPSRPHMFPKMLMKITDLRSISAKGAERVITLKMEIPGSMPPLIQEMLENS
Protocol: (§3) The compounds of the invention were tested in certain assays for activity as agonists of RAR and RXR retinoid receptors. Specifically, one such assay is a chimeric receptor transactivation assay which tests for agonist-like activity in the RARα, RARβ and RARγ receptor subtypes, and which is based on work published by Feigner P. L. and Holm M. (1989) Focus, 112 is described in detail in U.S. Pat. No. 5,455,265. The specification of U.S. Pat. No. 5,455,265 is hereby expressly incorporated by reference.
as §1
(§4) Efficacy in a transactivation assay is expressed as a percentage of the maximum potency attained by the compound compared to a standard which, in this case, is the compound 4-[(1E)-2-(5,6,7,8-tetrahydro-5,5,8,8-tetramethyl-2-naphthalenyl)-1-propenyl]-benzoic acid. (TTNPB) This standard compound is described in PCT Publication WO 2002077169 A2.
as §2

RARβ [5] = target: T5, RARβ (Homo sapiens, UniProt P10826); assay: chimeric receptor transactivation assay, RARβ; type: cell-based; conditions: for EC50: chimeric receptor transactivation, read-out: RAR EC50 β; for % Efficiency β: percentage of maximum compared to standard TTNPB
T5 sequence (P10826 183-455 limits assumed): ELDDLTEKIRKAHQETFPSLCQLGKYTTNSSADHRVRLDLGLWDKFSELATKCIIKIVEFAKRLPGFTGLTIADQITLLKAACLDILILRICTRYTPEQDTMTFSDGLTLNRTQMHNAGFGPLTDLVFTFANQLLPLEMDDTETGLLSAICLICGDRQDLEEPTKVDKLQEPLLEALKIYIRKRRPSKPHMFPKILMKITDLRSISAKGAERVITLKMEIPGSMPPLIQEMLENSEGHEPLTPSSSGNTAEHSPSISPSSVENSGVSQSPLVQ
Protocol: as §3, §1, §4, §2

RARγ [6] = target: T6, RARγ (Homo sapiens, UniProt P13631); assay: chimeric receptor transactivation assay, RARγ; type: cell-based; conditions: for EC50: chimeric receptor transactivation, read-out: RAR EC50 γ; for % Efficiency γ: percentage of maximum compared to standard TTNPB
T6 construct: % Efficiency γ; other: percentage of maximum compared to standard TTNPB
T6 sequence (P13631 185-454 limits assumed): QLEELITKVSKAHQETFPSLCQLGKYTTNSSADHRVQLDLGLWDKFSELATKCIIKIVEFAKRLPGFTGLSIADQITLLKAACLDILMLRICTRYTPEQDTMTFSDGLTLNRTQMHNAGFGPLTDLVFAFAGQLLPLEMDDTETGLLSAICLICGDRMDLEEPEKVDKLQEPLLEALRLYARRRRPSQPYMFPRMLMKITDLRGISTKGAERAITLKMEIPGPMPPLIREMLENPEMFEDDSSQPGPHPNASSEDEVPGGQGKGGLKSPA
Protocol: as §3, §1, §4, §2

Compound | Ki (RARα [1]) [µM] | Ki (RARβ [2]) [µM] | Ki (RARγ [3]) [nM] | EC50 (RARα [4]) [nM] | % Efficiency α (RARα [4]) [%] | EC50 (RARβ [5]) [nM] | % Efficiency β (RARβ [5]) [%] | EC50 (RARγ [6]) [nM] | % Efficiency γ (RARγ [6]) [%]
CC1=CCC(C)(C)c2cc(C(/C=C/c3ccc(C(=O)O)cc3)=N\O)ccc21 | 4 | 3 | 36 | 515 | 50 | 94 | 104 | 4 | 95
CC1=CCC(C)(C)c2cc(C(/C=C/c3ccc(C(=O)O)cc3F)=N\O)ccc21 | 18 | 11 | 28 | > 1000 | – | 445 | 92 | 11 | 90
CC1(C)CC(C)(C)c2cc(C(C=Cc3ccc(C(=O)O)cc3F)=NO)ccc21 | 14 | 25 | 25 | > 1000 | – | 114 | 79 | 1 | 72
CC1(C)CC(C)(C)c2cc(C(/C=C/c3ccc(C(=O)O)cc3F)=N\O)ccc21 | 13 | 27 | 264 | > 1000 | – | 249 | 82 | 9 | 79
COc1cc2c(cc1C(/C=C/c1ccc(C(=O)O)cc1)=N/O)C(C)(C)CCC2(C)C | 2 | 2.5 | 648 | 80000 | 29 | 1270 | 65 | 19 | 98
COc1cc2c(cc1C(/C=C/c1ccc(C(=O)O)cc1)=N\O)C(C)(C)CCC2(C)C | 10 | 10 | 1500 | > 1000 | – | 5920 | 44 | 84 | 107
CC1(C)CCC(C)(C)c2nc(C(C=Cc3ccc(C(=O)O)cc3)=NO)cnc21 [drawing 34] | 27 | – | 240 | 4000 | 41 | 105 | 88 | 10 | 123
CC1(C)CCC(C)(C)c2nc(C(C=Cc3ccc(C(=O)O)cc3)=NO)cnc21 [drawing 35] | 25 | – | 461 | 128 | 54 | 77 | 110 | 143 | 151
